According to US20240398783A1, “Compounds and Pharmaceutical Compositions Comprising Inhibitors of Amyloid Peptide Interactions with Glycosaminoglycans, Methods of Treatment and Use Thereof” (Gismo Therapeutics, Inc., priority 2021, published 2024):
Where a name gives a salt, the structure may show the parent alone.

Target: T1, Amyloid-beta(1-42) oligomer binding to heparin (HS-GAG) (Homo sapiens, UniProt P05067)
T1 construct: Beta-amyloid (1-42) was purchased from rPeptide (Cat. No. A1163); purchased rPeptide A1163
T1 sequence (P05067 672-713): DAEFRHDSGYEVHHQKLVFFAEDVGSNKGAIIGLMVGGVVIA
Assay: Inhibition of Amyloid-beta(1-42) oligomer binding to immobilized heparin-BSA (ELISA)
Design: species or system porcine
Conditions: Abeta(1-42) oligomers, co-incubation on heparin-BSA plates; read-out: Abeta42/Heparin Activity (IC-50)
Description: Porcine intestinal mucosa heparin conjugated to Bovine Serum Albumin (Heparin-BSA) was prepared as described (Najjam, S. et al. 1997, Cytokine 12, 1013-1022). Heparin is a sulfated HS-GAG and is commonly used as a HS-GAG in biochemical and binding assays (Lindahl, U. and Kjellen, L. (2013) ibid). Heparin-BSA at 0.01 mg/ml in Phosphate Buffered Saline (PBS; pH 7.4) was added to a 96 well polystyrene ELISA plate (NUNC Cat. No. 449824; 100 μl per well) and incubated Over Night (ON) at 4 degrees Celsius. For negative controls, ELISA plates were coated with BSA instead of Heparin-BSA, using the same procedure. Following the incubation, the plate was washed consecutively, by immersion, with de-ionized water and PBS (pH 7.4). The ELISA plate was then blocked with nonfat milk (2%, 200 μl per well) for 2 hours at Room Temperature (RT) with gentle shaking. Following blocking, the plate was washed with de-ionized water then PBS (pH 7.4). GBAPs were dissolved and diluted in PBS (pH 6.5, supplemented with 0.1% BSA) at desired concentrations, added to the ELISA plates containing immobilized Heparin-BSA (100 μl per well) and incubated for 2 hours at RT with gentle shaking. Following incubation, the plate was washed with de-ionized water and three times with PBS (pH 6.5) plus Tween. Bound GBAP was detected by a monoclonal antibody specific for that GBAP, followed by incubation with secondary antibody conjugated to horseradish peroxidase (HRP). Antibody was diluted in PBS (pH 6.5 supplemented with 1% BSA). Following each incubation with antibody, the plate was washed with de-ionized water and three times with PBS (pH 6.5) wash buffer containing 0.1% Tween. The peroxidase substrate chromogen, TMB (Dako Cat. No. S1599) was added (100 μl per well) to the ELISA plate and incubated at room temperature. After 5 minutes ELISA Stop Solution (hydrochloric acid 1N, sulfuric acid 3N) was added (100 μl per well) to stop the peroxidase catalyzed colorimetric reaction. The Optical Density of the samples was measured at 450 nm using an ELISA plate reader (BioTek Synergy H1). Following color development, the % inhibition compared to control (BSA-coated plates) was determined. IC-50s were calculated using GraphPad Prism software.
The assay was performed as described in Example 43, with the following modifications. Following to coating the plates with Heparin-BSA, plates were washed as described. The compounds were dissolved in DMSO at 10 mM final concentration and further diluted prior to assay. DMSO concentration in the screening well was up to 2%. Individual compounds were co-incubated with Beta-amyloid peptides on plates containing immobilized heparin. Beta-amyloid (1-42) was purchased from rPeptide (Cat. No. A1163) and used to prepare oligomers according to Stine et al., 2003 (J Biol Chem. 278(13):11612-22) as follows. 1,1,1,3,3,3-Hexafluoro-2-propanol- (HFIP; Sigma Cat. No. 105228)-treated Beta amyloid (1-42) was dissolved in dry DMSO (Sigma Cat. No. D2650) to 5 mM concentration. Dissolved Beta amyloid (1-42) was then diluted to 100 μM in ice-cold cell culture medium (phenol red-free Ham's F-12; Caisson Labs, Cat. No. HFL05), followed immediately by vortexing for 30 seconds, and incubating at 4 degrees Celsius for 24 h. Resulting Beta amyloid (1-42) oligomers were centrifuged at 12,000 rpm for 10 min at 4 degree Celsius to remove aggregates. Oligomers were then quickly frozen and kept in aliquots at −80 degrees Celsius. Beta-amyloid (1-40) from rPeptide (Cat No. A1153) was dissolved in DMSO, quickly frozen and kept in aliquots at −80 degrees Celsius. Beta-amyloid (1-42) oligomers or Beta-amyloid (1-40) diluted in PBS (pH 6.5, supplemented with BSA, 0.1%) were added to the ELISA plate (100 μl per well) and incubated for 2 hours at RT with gentle shaking. Following the incubation, the plate was washed with de-ionized water and three times with PBS (pH 6.5) plus Tween. […]

Compound | IC50
C/C(=N\Nc1ncnc2cc(Cl)ccc12)c1ccc(-n2cc(C)nc2C)nc1 [Compound 18, (E)-7-chloro-4-(2-(1-(6-(2,4-dimethyl-1H-imidazol-1-yl)pyridin-3-yl)ethylidene)hydrazineyl)quinazoline phosphoric acid salt] | 13.6 µM
Cc1cc(-n2ccnc2)ccc1/C=N/Nc1ccnc2cc(Cl)ccc12 [Compound 1, (E)-4-((E)-(4-(1H-imidazol-1-yl)-2-methylbenzylidene)hydrazono)-7-chloro-1,4-dihydroquinoline] | 2.3 µM
